Experimental data from patent US8822468B2 (Novartis AG, priority 2008, dated 2014).
pIC50: −log10 of the molar value.

The compounds below were run against T1, cMET receptor tyrosine kinase (GST-cMET (969-1390)) (Homo sapiens, UniProt P08581) (assay: EPK cMET profiling assay (LanthaScreen TR-FRET antibody based kinase phosphorylation assay)). Settings: purified recombinant GST-cMET (969-1390), 2 μM ATP, 50 nM Fluorescein-PolyEAY, 60 minutes at room temperature; read-out: c-Met IC50.
T1 construct: made in house
T1 sequence (P08581 969-1390): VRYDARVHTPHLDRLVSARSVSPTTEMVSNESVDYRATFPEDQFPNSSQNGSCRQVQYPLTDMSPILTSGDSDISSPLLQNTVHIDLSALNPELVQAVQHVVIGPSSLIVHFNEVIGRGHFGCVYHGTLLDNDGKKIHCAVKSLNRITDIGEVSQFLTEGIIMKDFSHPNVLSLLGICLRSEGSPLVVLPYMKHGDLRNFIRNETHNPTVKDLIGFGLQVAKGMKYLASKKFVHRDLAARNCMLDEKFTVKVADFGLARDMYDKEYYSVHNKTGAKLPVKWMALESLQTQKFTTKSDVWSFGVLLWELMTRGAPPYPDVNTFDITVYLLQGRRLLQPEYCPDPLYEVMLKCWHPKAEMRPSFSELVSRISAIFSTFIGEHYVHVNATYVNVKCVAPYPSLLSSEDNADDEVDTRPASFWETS
Format: biochemical
Outline: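 GST-cMET cytoplasmic domain (969-1390), 0.3 nM, phosphorylated 50 nM fluorescein-PolyEAY with 2 µM ATP, Mg2+/Mn2+, 0.6% DMSO, 60 min at room temperature. Stopped with EDTA; Tb-PY20 antibody TR-FRET single end-point read. Final compound concentrations 10 to 0.003 µM, 8 points.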
In the case of O=C(NCCN1CCCC1)c1ccc(-c2ccc3ncc(Cc4ccc5ncccc5c4)n3n2)cc1Cl [Example 144, 2-Chloro-N-(2-pyrrolidin-1-yl-ethyl)-4-(3-quinolin-6-ylmethyl-imidazo[1,2-b]pyridazin-6-yl)benzamide], the pIC50 was 8.49.
In the case of CN1CC(n2cc(-c3ccc4ncc(Cc5cc6cccnc6cc5F)n4n3)cn2)C1 [Example 146, 7-Fluoro-6-{6-[1-(1-methyl-azetidin-3-yl)-1H-pyrazol-4-yl]-imidazo[1,2-b]pyridazin-3-ylmethyl}-quinoline], the pIC50 was 7.17.
In the case of OCCN1CCC(n2cc(-c3ccc4ncc(Cc5cc6cccnc6cc5F)n4n3)cn2)CC1 [Example 147, 2-(4-{4-[3-(7-Fluoro-quinolin-6-ylmethyl)-imidazo[1,2-b]pyridazin-6-yl]-pyrazol-1-yl}-piperidin-1-yl)-ethanol], the pIC50 was 7.09.
With CCN1CCC(n2cc(-c3ccc4ncc(Cc5cc6cccnc6cc5F)n4n3)cn2)CC1 [Example 148, 6-{6-[1-(1-Ethyl-piperidin-4-yl)-1H-pyrazol-4-yl]-imidazo[1,2-b]pyridazin-3-ylmethyl}-7-fluoro-quinoline] the pIC50 was 7.80.
Work on Fc1cc2ncccc2cc1Cc1cnc2ccc(-c3cnn(C4CCN(CC(F)(F)F)CC4)c3)nn12 [Example 149, 7-Fluoro-6-(6-{1-[1-(2,2,2-trifluoro-ethyl)-piperidin-4-yl]-1H-pyrazol-4-yl}-imidazo[1,2-b]pyridazin-3-ylmethyl)-quinoline] yielded a pIC50 of 7.51.
Cn1cc(-c2ccc3ncc(Cc4ccc5[nH]ncc5c4)n3n2)cn1 [Example 150, 3-(1H-Indazol-5-ylmethyl)-6-(1-methyl-1H-pyrazol-4-yl)-imidazo[1,2-b]pyridazine] showed a pIC50 of 7.25.
Work on Cn1cc(-c2ccc3ncc([C@H](O)c4ccc5ncccc5c4)n3n2)cn1 [Example 151, (R)-[6-(1-Methyl-1H-pyrazol-4-yl)-imidazo[1,2-b]pyridazin-3-yl]-quinolin-6-yl-methanol] yielded a pIC50 of 7.19.
Compound Cn1cc(-c2ccc3ncc([C@@H](O)c4ccc5ncccc5c4)n3n2)cn1 [Example 152, (S)-[6-(1-Methyl-1H-pyrazol-4-yl)-imidazo[1,2-b]pyridazin-3-yl]-quinolin-6-yl-methanol] has a pIC50 of 6.05.
With C=C(c1ccc2ncccc2c1)c1cnc2ccc(-c3cnn(C)c3)nn12 [Example 155, 6-{1-[6-(1-Methyl-1H-pyrazol-4-yl)-imidazo[1,2-b]pyridazin-3-yl]-vinyl}-quinoline] the pIC50 was 6.07.
Compound C[C@H](c1ccc2ncccc2c1)c1cnc2ccc(-c3cnn(C)c3)nn12 [Example 158, 6-{(R)-1-[6-(1-Methyl-1H-pyrazol-4-yl)-imidazo[1,2-b]pyridazin-3-yl]-ethyl}-quinoline] has a pIC50 of 6.27.
With C[C@@H](c1ccc2ncccc2c1)c1cnc2ccc(-c3cnn(C)c3)nn12 [Example 159, 6-{(S)-1-[6-(1-Methyl-1H-pyrazol-4-yl)-imidazo[1,2-b]pyridazin-3-yl]-ethyl}-quinoline] the pIC50 was 7.85.
Work on Cn1cc(-c2ccc3ncc(Cc4ccc5ncccc5c4F)n3n2)cn1 [Example 160, 5-Fluoro-6-[6-(1-methyl-1H-pyrazol-4-yl)-imidazo[1,2-b]pyridazin-3-ylmethyl]-quinoline] yielded a pIC50 of 7.92.
Cn1cc(-c2ccc3ncc(Cc4ccc5[nH]cnc5c4)n3n2)cn1 [Example 162, 3-(1H-Benzoimidazol-5-ylmethyl)-6-(1-methyl-1H-pyrazol-4-yl)-imidazo[1,2-b]pyridazine] showed a pIC50 of 7.47.
Cn1cc(-c2ccc3ncc(C4(c5ccc6ncccc6c5)CC4)n3n2)cn1 [Example 163, 6-{1-[6-(1-Methyl-1H-pyrazol-4-yl)-imidazo[1,2-b]pyridazin-3-yl]-cyclopropyl}-quinoline] gave a pIC50 of 6.96.
C[C@@H](c1cc2cn[nH]c2cc1F)c1cnc2ccc(-c3cnn(C)c3)nn12 [Example 165, 3-[(S)-1-(6-Fluoro-1H-indazol-5-yl)-ethyl]-6-(1-methyl-1H-pyrazol-4-yl)-imidazo[1,2-b]pyridazine] gave a pIC50 of 7.92.
Cn1cc(-c2ccc3ncc(Cc4cc5cn[nH]c5cc4F)n3n2)cn1 [Example 167, 3-(6-Fluoro-1H-indazol-5-ylmethyl)-6-(1-methyl-1H-pyrazol-4-yl)-imidazo[1,2-b]pyridazine] was tested, and the pIC50 was 8.22.
Cn1cc(-c2ccc3ncc(Cc4cc5cccnc5cc4C(F)(F)F)n3n2)cn1 [Example 169, 6-[6-(1-Methyl-1H-pyrazol-4-yl)-imidazo[1,2-b]pyridazin-3-ylmethyl]-7-trifluoromethyl-quinoline] was tested, and the pIC50 was 6.40.
In the case of Cn1cc(-c2ccc3ncc(Cc4c(F)cc5ncccc5c4F)n3n2)cn1 [Example 170, 5,7-Difluoro-6-[6-(1-methyl-1H-pyrazol-4-yl)-imidazo[1,2-b]pyridazin-3-ylmethyl]-quinoline], the pIC50 was 8.22.
With OCCn1cc(-c2ccc3ncc(Cc4c(F)cc5ncccc5c4F)n3n2)cn1 [Example 171, 2-{4-[3-(5,7-Difluoro-quinolin-6-ylmethyl)-imidazo[1,2-b]pyridazin-6-yl]-pyrazol-1-yl}-ethanol] the pIC50 was over 8.52.
Work on Cn1cc(-c2ccc3ncc(Cc4ccc5ncccc5c4Cl)n3n2)cn1 [Example 172, 5-Chloro-6-[6-(1-methyl-1H-pyrazol-4-yl)-imidazo[1,2-b]pyridazin-3-ylmethyl]-quinoline] yielded a pIC50 of 8.00.
Work on Cn1cc(-c2ccc3ncc(Cc4cc5cccnc5cc4F)n3n2)cn1 [Example 173, 7-Fluoro-6-[6-(1-methyl-1H-pyrazol-4-yl)-imidazo[1,2-b]pyridazin-3-ylmethyl]-quinoline] yielded a pIC50 of 8.40.
Cn1cc(-c2ccc3ncc([C@](C)(O)c4cc5cccnc5cc4F)n3n2)cn1 [Example 175, (R)-1-(7-Fluoro-quinolin-6-yl)-1-[6-(1-methyl-1H-pyrazol-4-yl)-imidazo[1,2-b]pyridazin-3-yl]-ethanol] gave a pIC50 of 7.42.
C[C@@H](c1ccc2ncccc2c1)c1cnc2ccc(-c3cnn(CCO)c3)nn12 [Example 179, 2-{4-[3-((S)-1-Quinolin-6-yl-ethyl)-imidazo[1,2-b]pyridazin-6-yl]-pyrazol-1-yl}-ethanol] gave a pIC50 of 7.82.
With Fc1cc2ncccc2cc1Cc1cnc2ccc(-c3cnn(C4CCNCC4)c3)nn12 [Example 180, 7-Fluoro-6-[6-(1-piperidin-4-yl-1H-pyrazol-4-yl)-imidazo[1,2-b]pyridazin-3-ylmethyl]-quinoline] the pIC50 was 6.84.
CN1CCC(n2cc(-c3ccc4ncc(Cc5cc6cccnc6cc5F)n4n3)cn2)CC1 [Example 181, 7-Fluoro-6-{6-[1-(1-methyl-piperidin-4-yl)-1H-pyrazol-4-yl]-imidazo[1,2-b]pyridazin-3-ylmethyl}-quinoline] showed a pIC50 of 7.19.
With C[C@H](c1c(F)cc2ncccc2c1F)c1cnc2ccc(-c3cnn(CCO)c3)nn12 [Example 183, 2-(4-{3-[(R)-1-(5,7-Difluoro-quinolin-6-yl)-ethyl]-imidazo[1,2-b]pyridazin-6-yl}-pyrazol-1-yl)ethanol] the pIC50 was 6.70.
C[C@@H](c1c(F)cc2ncccc2c1F)c1cnc2ccc(-c3cnn(CCO)c3)nn12 [Example 184, 2-(4-{3-[(S)-1-(5,7-Difluoro-quinolin-6-yl)-ethyl]-imidazo[1,2-b]pyridazin-6-yl}-pyrazol-1-yl)ethanol] was tested, and the pIC50 was over 8.52.
C[C@@H](c1ccc2ncn(C)c2c1)c1cnc2ccc(-c3cnn(CCO)c3)nn12 [Example 187, 2-(4-{3-[(S)-1-(3-Methyl-3H-benzoimidazol-5-yl)-ethyl]-imidazo[1,2-b]pyridazin-6-yl}-pyrazol-1-yl)-ethanol] showed a pIC50 of 7.72.
Work on C[C@@H](c1c(F)cc2ncccc2c1F)c1cnc2ccc(-c3cnn(C)c3)nn12 [Example 192, 5,7-Difluoro-6-{(S)-1-[6-(1-methyl-1H-pyrazol-4-yl)-imidazo[1,2-b]pyridazin-3-yl]-ethyl}-quinoline] yielded a pIC50 of over 8.52.
In the case of C[C@H](c1c(F)cc2ncccc2c1F)c1cnc2ccc(-c3cnn(C)c3)nn12 [Example 193, 5,7-Difluoro-6-{(R)-1-[6-(1-methyl-1H-pyrazol-4-yl)-imidazo[1,2-b]pyridazin-3-yl]-ethyl}-quinoline], the pIC50 was 6.60.
C[C@@H](c1cc2cnn(C)c2cc1F)c1cnc2ccc(-c3cnn(C)c3)nn12 [Example 194, 3-[(S)-1-(6-Fluoro-1-methyl-1H-indazol-5-yl)-ethyl]-6-(1-methyl-1H-pyrazol-4-yl)-imidazo[1,2-b]pyridazine] was tested, and the pIC50 was 7.74.
C[C@@H](c1ccc2[nH]ncc2c1)c1cnc2ccc(-c3cnn(C)c3)nn12 [Example 195, 3-[(S)-1-(2H-Indazol-5-yl)-ethyl]-6-(1-methyl-1H-pyrazol-4-yl)-imidazo[1,2-b]pyridazine] showed a pIC50 of 7.85.
In the case of C[C@@H](c1ccc2c(cnn2C)c1)c1cnc2ccc(-c3cnn(C)c3)nn12 [Example 196, 3-[(S)-1-(1-Methyl-1H-indazol-5-yl)-ethyl]-6-(1-methyl-1H-pyrazol-4-yl)-imidazo[1,2-b]pyridazine], the pIC50 was 7.44.
Compound FC(F)(c1ccc2ncccc2c1)c1cnc2ccc(-c3cnn(C4CCNCC4)c3)nn12 [Example 197, 6-{Difluoro-[6-(1-piperidin-4-yl-1H-pyrazol-4-yl)-imidazo[1,2-b]pyridazin-3-yl]-methyl}-quinoline] has a pIC50 of 7.21.
Cn1cc(-c2ccc3ncc(Cc4c[nH]c5ncccc45)n3n2)cn1 [Example 199, 6-(1-Methyl-1H-pyrazol-4-yl)-3-(1H-pyrrolo[2,3-b]pyridin-3-ylmethyl)-imidazo[1,2-b]pyridazine] showed a pIC50 of 7.45.
Cn1cc(-c2ccc3ncc(Cc4ccc5ncn(C)c5c4)n3n2)cn1 [Example 200, 3-(3-Methyl-3H-benzoimidazol-5-ylmethyl)-6-(1-methyl-1H-pyrazol-4-yl)-imidazo[1,2-b]pyridazine] gave a pIC50 of 7.64.
In the case of Cn1cc(-c2ccc3ncc(Cc4ccc(O)cc4F)n3n2)cn1 [Example 202, 3-Fluoro-4-[6-(1-methyl-1H-pyrazol-4-yl)-imidazo[1,2-b]pyridazin-3-ylmethyl]-phenol], the pIC50 was 7.17.
